One assay has as its target Toll-like receptor 1/2 (Homo sapiens, UniProt O60603+Q15399). The assay can be described thus: Agonist activity at TLR2/TLR1 in human THP-1 cells. In kind it is cell-based.
Assay [1] concerns the target Toll-like receptor 1/2 (Mus musculus). The assay can be described thus: Agonist activity at TLR2/TLR1 in mouse Macrophage cell line.

SMILES strings stand for the structures.

Toll-like receptor 1/2, sequence (O60603 whole entry): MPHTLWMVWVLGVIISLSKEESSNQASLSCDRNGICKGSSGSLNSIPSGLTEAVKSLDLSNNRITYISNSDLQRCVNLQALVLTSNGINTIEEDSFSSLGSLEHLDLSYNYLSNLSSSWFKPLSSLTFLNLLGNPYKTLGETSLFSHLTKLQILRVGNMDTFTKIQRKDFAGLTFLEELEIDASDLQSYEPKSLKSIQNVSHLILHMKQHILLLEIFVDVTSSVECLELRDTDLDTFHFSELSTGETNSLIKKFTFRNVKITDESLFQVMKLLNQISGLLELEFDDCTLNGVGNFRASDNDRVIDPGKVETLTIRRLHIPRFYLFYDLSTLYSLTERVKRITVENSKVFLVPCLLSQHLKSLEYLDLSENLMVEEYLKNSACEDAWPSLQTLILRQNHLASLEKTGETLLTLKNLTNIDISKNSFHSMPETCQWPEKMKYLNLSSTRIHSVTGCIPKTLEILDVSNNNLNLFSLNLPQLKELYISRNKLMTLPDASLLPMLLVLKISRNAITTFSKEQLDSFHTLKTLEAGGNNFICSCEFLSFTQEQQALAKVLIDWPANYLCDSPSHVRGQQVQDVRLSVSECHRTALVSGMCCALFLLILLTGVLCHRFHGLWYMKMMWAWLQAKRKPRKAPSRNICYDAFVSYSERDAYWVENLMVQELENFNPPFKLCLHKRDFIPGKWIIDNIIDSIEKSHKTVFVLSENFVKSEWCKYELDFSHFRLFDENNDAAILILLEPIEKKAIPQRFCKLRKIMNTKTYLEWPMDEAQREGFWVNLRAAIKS
Toll-like receptor 1/2, sequence (Q15399 whole entry): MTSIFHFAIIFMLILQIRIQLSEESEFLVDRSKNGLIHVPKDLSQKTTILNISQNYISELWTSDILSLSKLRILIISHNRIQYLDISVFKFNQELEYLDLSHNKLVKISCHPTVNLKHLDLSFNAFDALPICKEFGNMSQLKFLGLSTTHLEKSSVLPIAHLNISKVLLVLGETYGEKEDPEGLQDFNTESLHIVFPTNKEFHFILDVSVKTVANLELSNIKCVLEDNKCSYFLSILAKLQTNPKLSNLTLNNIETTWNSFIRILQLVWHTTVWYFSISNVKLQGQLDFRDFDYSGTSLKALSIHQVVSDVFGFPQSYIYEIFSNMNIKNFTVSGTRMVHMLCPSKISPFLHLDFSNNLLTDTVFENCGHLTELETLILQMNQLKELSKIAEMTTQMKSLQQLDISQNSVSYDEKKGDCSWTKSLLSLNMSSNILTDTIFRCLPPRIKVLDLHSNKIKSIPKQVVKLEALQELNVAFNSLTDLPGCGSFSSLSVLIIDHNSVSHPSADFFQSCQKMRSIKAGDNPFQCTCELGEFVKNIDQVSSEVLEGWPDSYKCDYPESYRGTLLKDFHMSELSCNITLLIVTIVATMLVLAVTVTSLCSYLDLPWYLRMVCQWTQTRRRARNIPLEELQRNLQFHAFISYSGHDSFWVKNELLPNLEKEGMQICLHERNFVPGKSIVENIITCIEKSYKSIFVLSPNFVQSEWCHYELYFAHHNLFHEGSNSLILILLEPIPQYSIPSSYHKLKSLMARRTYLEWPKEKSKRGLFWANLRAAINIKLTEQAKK

By EC50 is commonly meant the concentration giving half of the maximal effect. A higher EC50 goes with a less potent agent. For `O=C(N[C@H]1C[C@@H]1c1ccccc1)[C@@H]1CN(C(=O)c2ccc(C(=O)N3C[C@@H](C(=O)N[C@H]4C[C@@H]4c4ccccc4)[C@H](C(=O)N[C@H]4C[C@@H]4c4ccccc4)C3)nc2)C[C@H]1C(=O)N[C@H]1C[C@@H]1c1ccccc1`, the EC50 stood at 0.004 µM on Toll-like receptor 1/2 and 0.27 µM in assay [1]. The matching figures for `CCCCCCCCCCCCNC(=O)[C@@H]1CN(C(=O)c2ccc(C(=O)N3C[C@@H](C(=O)N[C@H]4C[C@@H]4c4ccccc4)[C@H](C(=O)N[C@@H]4C[C@H]4c4ccccc4)C3)cc2)C[C@H]1C(=O)NCCCCCCCCCCCC`: 0.0013 µM and 0.62 µM. Take `O=C(N[C@H]1C[C@@H]1c1ccccc1)[C@@H]1CN(C(=O)c2c(F)c(F)c(C(=O)N3C[C@@H](C(=O)N[C@H]4C[C@@H]4c4ccccc4)[C@H](C(=O)N[C@H]4C[C@@H]4c4ccccc4)C3)c(F)c2F)C[C@H]1C(=O)N[C@H]1C[C@@H]1c1ccccc1`: the EC50 is 0.11 µM at Toll-like receptor 1/2 and greater than 5 µM in assay [1]. Take `CCCCCCCCCCCCCCNC(=O)[C@@H]1CN(C(=O)c2ccc(C(=O)N3C[C@@H](C(=O)N[C@H]4C[C@@H]4c4ccccc4)[C@H](C(=O)N[C@@H]4C[C@H]4c4ccccc4)C3)cc2)C[C@H]1C(=O)NCCCCCCCCCCCCCC`: the values for the EC50 (at Toll-like receptor 1/2; in assay [1]) were 0.00017 µM and 0.01 µM, respectively. Consider `O=C(NCCc1ccc(F)cc1)[C@@H]1CN(C(=O)COCC(=O)N2C[C@@H](C(=O)NCCc3ccc(F)cc3)[C@H](C(=O)NCCc3ccc(F)cc3)C2)C[C@H]1C(=O)NCCc1ccc(F)cc1`, for which the EC50 (on Toll-like receptor 1/2; in assay [1]) was greater than 5 µM each time. For the compound `O=C(N[C@H]1C[C@@H]1c1ccccc1)[C@@H]1CN(C(=O)[C@H]2CC[C@@H](C(=O)N3C[C@@H](C(=O)N[C@H]4C[C@@H]4c4ccccc4)[C@H](C(=O)N[C@H]4C[C@@H]4c4ccccc4)C3)CC2)C[C@H]1C(=O)N[C@H]1C[C@@H]1c1ccccc1`, the EC50 (on Toll-like receptor 1/2; in assay [1]) was greater than 5 µM each time.

For `O=C(NCCc1ccc(F)cc1)[C@@H]1CN(C(=O)[C@H]2CC[C@H](C(=O)N3C[C@@H](C(=O)NCCc4ccc(F)cc4)[C@H](C(=O)NCCc4ccc(F)cc4)C3)CC2)C[C@H]1C(=O)NCCc1ccc(F)cc1`, the EC50 (at Toll-like receptor 1/2; in assay [1]) was greater than 5 µM each time. Consider `O=C(NCCc1ccc([N+](=O)[O-])cc1)[C@@H]1CN(C(=O)c2ccc(C(=O)N3C[C@@H](C(=O)NCCc4ccc([N+](=O)[O-])cc4)[C@H](C(=O)NCCc4ccc([N+](=O)[O-])cc4)C3)cc2)C[C@H]1C(=O)NCCc1ccc([N+](=O)[O-])cc1` (racemic), for which the EC50 on Toll-like receptor 1/2 is greater than 5 µM.

At Toll-like receptor 1/2, `N#Cc1ccc(CCNC(=O)[C@@H]2CN(C(=O)c3ccc(C(=O)N4C[C@@H](C(=O)NCCc5ccc(C#N)cc5)[C@H](C(=O)NCCc5ccc(C#N)cc5)C4)cc3)C[C@H]2C(=O)NCCc2ccc(C#N)cc2)cc1` (racemic) registered an EC50 greater than 5 µM.

`O=C(N[C@H]1C[C@@H]1c1ccccc1)[C@@H]1CN(C(=O)COCC(=O)N2C[C@@H](C(=O)N[C@H]3C[C@@H]3c3ccccc3)[C@H](C(=O)N[C@H]3C[C@@H]3c3ccccc3)C2)C[C@H]1C(=O)N[C@H]1C[C@@H]1c1ccccc1`: the EC50 (at Toll-like receptor 1/2; in assay [1]) was greater than 5 µM each time. In the case of `O=C(NCCc1ccc(C(F)(F)F)cc1)[C@@H]1CN(C(=O)c2ccc(C(=O)N3C[C@@H](C(=O)NCCc4ccc(C(F)(F)F)cc4)[C@H](C(=O)NCCc4ccc(C(F)(F)F)cc4)C3)cc2)C[C@H]1C(=O)NCCc1ccc(C(F)(F)F)cc1` (racemic), on Toll-like receptor 1/2, the EC50 was greater than 5 µM. Regarding `O=C(NCCc1ccc(F)cc1)[C@@H]1CN(C(=O)c2cccc(C(=O)N3C[C@@H](C(=O)NCCc4ccc(F)cc4)[C@H](C(=O)NCCc4ccc(F)cc4)C3)c2)C[C@H]1C(=O)NCCc1ccc(F)cc1`, the EC50 (at Toll-like receptor 1/2; in assay [1]) was greater than 5 µM each time. Turning to `O=C(NCCc1ccc(F)cc1)[C@@H]1CN(C(=O)/C=C/C(=O)N2C[C@@H](C(=O)NCCc3ccc(F)cc3)[C@H](C(=O)NCCc3ccc(F)cc3)C2)C[C@H]1C(=O)NCCc1ccc(F)cc1`, the EC50 (on Toll-like receptor 1/2; in assay [1]) was greater than 5 µM each time. Regarding `O=C(NCCc1ccc(F)cc1)[C@@H]1CN(C(=O)c2ccc(-c3ccc(C(=O)N4C[C@@H](C(=O)NCCc5ccc(F)cc5)[C@H](C(=O)NCCc5ccc(F)cc5)C4)cc3)cc2)C[C@H]1C(=O)NCCc1ccc(F)cc1`, the EC50 (at Toll-like receptor 1/2; in assay [1]) was greater than 5 µM in each case. As to `O=C(N[C@H]1C[C@@H]1c1ccccc1)[C@@H]1CN(C(=O)[C@H]2CC[C@H](C(=O)N3C[C@@H](C(=O)N[C@H]4C[C@@H]4c4ccccc4)[C@H](C(=O)N[C@H]4C[C@@H]4c4ccccc4)C3)CC2)C[C@H]1C(=O)N[C@H]1C[C@@H]1c1ccccc1`, the EC50 (at Toll-like receptor 1/2; in assay [1]) was greater than 5 µM each time. Turning to `O=C(N[C@H]1C[C@@H]1c1ccccc1)[C@@H]1CN(C(=O)C#CC(=O)N2C[C@@H](C(=O)N[C@H]3C[C@@H]3c3ccccc3)[C@H](C(=O)N[C@H]3C[C@@H]3c3ccccc3)C2)C[C@H]1C(=O)N[C@H]1C[C@@H]1c1ccccc1`, the EC50 (on Toll-like receptor 1/2; in assay [1]) was greater than 5 µM throughout.

In turn, `COc1ccc(CCNC(=O)[C@@H]2CN(C(=O)c3ccc(C(=O)N4C[C@@H](C(=O)NCCc5ccc(OC)cc5)[C@H](C(=O)NCCc5ccc(OC)cc5)C4)cc3)C[C@H]2C(=O)NCCc2ccc(OC)cc2)cc1` (racemic) gave an EC50 at Toll-like receptor 1/2 greater than 5 µM. With `O=C(N[C@H]1C[C@@H]1c1ccccc1)[C@@H]1CN(C(=O)[C@@H]2CCC[C@H](C(=O)N3C[C@@H](C(=O)N[C@H]4C[C@@H]4c4ccccc4)[C@H](C(=O)N[C@H]4C[C@@H]4c4ccccc4)C3)C2)C[C@H]1C(=O)N[C@H]1C[C@@H]1c1ccccc1`, the EC50 (at Toll-like receptor 1/2; in assay [1]) was greater than 5 µM in each case. For `COc1cc(C(=O)N2C[C@@H](C(=O)N[C@H]3C[C@@H]3c3ccccc3)[C@H](C(=O)N[C@H]3C[C@@H]3c3ccccc3)C2)ccc1C(=O)N1C[C@@H](C(=O)N[C@H]2C[C@@H]2c2ccccc2)[C@H](C(=O)N[C@H]2C[C@@H]2c2ccccc2)C1`, the EC50 is 0.03 µM on Toll-like receptor 1/2 and 0.25 µM in assay [1]. For `O=C(O)[C@@H]1CN(C(=O)c2ccc(C(=O)N3C[C@@H](C(=O)O)[C@H](C(=O)N[C@@H]4C[C@H]4c4ccccc4)C3)cc2)C[C@H]1C(=O)N[C@@H]1C[C@H]1c1ccccc1`, the EC50 (at Toll-like receptor 1/2; in assay [1]) was greater than 5 µM throughout.

For the compound `O=C(N[C@H]1C[C@@H]1c1ccc(Br)cc1)[C@@H]1CN(C(=O)c2ccc(C(=O)N3C[C@@H](C(=O)N[C@H]4C[C@@H]4c4ccc(Br)cc4)[C@H](C(=O)N[C@@H]4C[C@H]4c4ccc(Br)cc4)C3)cc2)C[C@H]1C(=O)N[C@H]1C[C@@H]1c1ccc(Br)cc1`, the EC50 at Toll-like receptor 1/2 was 1.6 µM; in assay [1], greater than 5 µM.

On to `C#CCNc1cc(C(=O)N2C[C@@H](C(=O)N[C@H]3C[C@@H]3c3ccccc3)[C@H](C(=O)N[C@H]3C[C@@H]3c3ccccc3)C2)ccc1C(=O)N1C[C@@H](C(=O)N[C@H]2C[C@@H]2c2ccccc2)[C@H](C(=O)N[C@H]2C[C@@H]2c2ccccc2)C1`, for which the EC50 on Toll-like receptor 1/2 was 0.015 µM; in assay [1] it was 0.75 µM. For `O=C(NCCc1ccc(Br)cc1)[C@@H]1CN(C(=O)c2ccc(C(=O)N3C[C@@H](C(=O)NCCc4ccc(Br)cc4)[C@H](C(=O)NCCc4ccc(Br)cc4)C3)cc2)C[C@H]1C(=O)NCCc1ccc(Br)cc1` (racemic), the EC50 at Toll-like receptor 1/2 was greater than 5 µM. `CCCCCCCCCCCCCCCCNC(=O)[C@@H]1CN(C(=O)c2ccc(C(=O)N3C[C@@H](C(=O)NCCCCCCCCCCCCCCCC)[C@H](C(=O)NCCCCCCCCCCCCCCCC)C3)cc2)C[C@H]1C(=O)NCCCCCCCCCCCCCCCC` showed an EC50 in assay [1] greater than 0.005 µM. At Toll-like receptor 1/2, `Cc1ccc(CCNC(=O)[C@@H]2CN(C(=O)c3ccc(C(=O)N4C[C@@H](C(=O)NCCc5ccc(C)cc5)[C@H](C(=O)NCCc5ccc(C)cc5)C4)cc3)C[C@H]2C(=O)NCCc2ccc(C)cc2)cc1` (racemic) showed an EC50 greater than 5 µM. `CCCCCCNC(=O)[C@@H]1CN(C(=O)c2ccc(C(=O)N3C[C@@H](C(=O)NCCCCCC)[C@H](C(=O)NCCCCCC)C3)cc2)C[C@H]1C(=O)NCCCCCC` returned an EC50 in assay [1] greater than 0.005 µM. Take `O=C(NCCc1ccccc1F)[C@@H]1CN(C(=O)c2ccc(C(=O)N3C[C@@H](C(=O)NCCc4ccccc4F)[C@H](C(=O)NCCc4ccccc4F)C3)cc2)C[C@H]1C(=O)NCCc1ccccc1F` (racemic): the EC50 at Toll-like receptor 1/2 is greater than 5 µM. At Toll-like receptor 1/2, `O=C(NCCc1ccccc1)[C@@H]1CN(C(=O)c2ccc(C(=O)N3C[C@@H](C(=O)NCCc4ccc5ccccc5c4)[C@H](C(=O)NCCc4ccc5ccccc5c4)C3)cc2)C[C@H]1C(=O)NCCc1ccc2ccccc2c1` (racemic) yielded an EC50 greater than 5 µM.

In the case of `O=C(NCCc1ccc(-c2ccccc2)cc1)[C@@H]1CN(C(=O)c2ccc(C(=O)N3C[C@@H](C(=O)NCCc4ccc(-c5ccccc5)cc4)[C@H](C(=O)NCCc4ccc(-c5ccccc5)cc4)C3)cc2)C[C@H]1C(=O)NCCc1ccc(-c2ccccc2)cc1` (racemic), at Toll-like receptor 1/2, the EC50 is greater than 5 µM. Take `CCCCCCCCNC(=O)[C@@H]1CN(C(=O)c2ccc(C(=O)N3C[C@@H](C(=O)NCCCCCCCC)[C@H](C(=O)NCCCCCCCC)C3)cc2)C[C@H]1C(=O)NCCCCCCCC`: in assay [1], the EC50 is greater than 0.005 µM. `Nc1ccc(CCNC(=O)[C@@H]2CN(C(=O)c3ccc(C(=O)N4C[C@@H](C(=O)NCCc5ccc(N)cc5)[C@H](C(=O)NCCc5ccc(N)cc5)C4)cc3)C[C@H]2C(=O)NCCc2ccc(N)cc2)cc1` (racemic) registered an EC50 on Toll-like receptor 1/2 greater than 5 µM. At Toll-like receptor 1/2, `COC(=O)c1ccc(CCNC(=O)[C@@H]2CN(C(=O)c3ccc(C(=O)N4C[C@@H](C(=O)NCCc5ccc(C(=O)OC)cc5)[C@H](C(=O)NCCc5ccc(C(=O)OC)cc5)C4)cc3)C[C@H]2C(=O)NCCc2ccc(C(=O)OC)cc2)cc1` (racemic) gave an EC50 greater than 5 µM. In the case of `O=C(NCCc1ccc(O)cc1)[C@@H]1CN(C(=O)c2ccc(C(=O)N3C[C@@H](C(=O)NCCc4ccc(O)cc4)[C@H](C(=O)NCCc4ccc(O)cc4)C3)cc2)C[C@H]1C(=O)NCCc1ccc(O)cc1` (racemic), the EC50 on Toll-like receptor 1/2 was greater than 5 µM.

`CCCCCCCCCCNC(=O)[C@@H]1CN(C(=O)c2ccc(C(=O)N3C[C@@H](C(=O)NCCCCCCCCCC)[C@H](C(=O)NCCCCCCCCCC)C3)cc2)C[C@H]1C(=O)NCCCCCCCCCC`: in assay [1], the EC50 is greater than 0.005 µM. For the compound `O=C(NCCc1ccc(Cl)cc1)[C@@H]1CN(C(=O)c2ccc(C(=O)N3C[C@@H](C(=O)NCCc4ccc(Cl)cc4)[C@H](C(=O)NCCc4ccc(Cl)cc4)C3)cc2)C[C@H]1C(=O)NCCc1ccc(Cl)cc1` (racemic), the EC50 on Toll-like receptor 1/2 is greater than 5 µM.

Source of the values: ChEMBL document CHEMBL5226282, “TLR2 Agonistic Small Molecules: Detailed Structure-Activity Relationship, Applications, and Future Prospects” (J Med Chem, 2021).
